Patent US20250090564A1, “BIOACTIVES AND THEIR USES” (AREPA IP LIMITED, priority 2022, published 2025)
Like-named read-outs stand apart in the source and are kept apart here.

How the values were obtained:
MAO-A [1] = target: T1, MAO-A (Homo sapiens, UniProt P21397); set-up: purchased Sigma-Aldrich MAK295/296; settings: reversible inhibitor; cited from earlier work
T1 sequence (P21397 1-527): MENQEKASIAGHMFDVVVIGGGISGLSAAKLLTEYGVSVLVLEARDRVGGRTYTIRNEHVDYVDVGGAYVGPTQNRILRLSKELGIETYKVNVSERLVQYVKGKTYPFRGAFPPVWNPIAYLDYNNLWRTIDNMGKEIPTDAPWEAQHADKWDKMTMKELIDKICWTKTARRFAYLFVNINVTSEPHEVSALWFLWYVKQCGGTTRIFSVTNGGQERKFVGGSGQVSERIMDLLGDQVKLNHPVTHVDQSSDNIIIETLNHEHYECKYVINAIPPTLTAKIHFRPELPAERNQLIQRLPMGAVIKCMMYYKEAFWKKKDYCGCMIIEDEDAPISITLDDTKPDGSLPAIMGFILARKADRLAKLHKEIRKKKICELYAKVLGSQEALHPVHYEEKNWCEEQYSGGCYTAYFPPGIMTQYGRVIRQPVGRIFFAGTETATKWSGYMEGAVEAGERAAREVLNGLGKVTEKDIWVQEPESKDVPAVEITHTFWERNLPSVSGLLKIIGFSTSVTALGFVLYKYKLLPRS

[2] = in vivo; cited from earlier work
MAO-A and B = settings: irreversible, non-selective inhibitor; cited from earlier work
[3] = In vitro digestion of blackcurrant juice concentrate (pepsin/acid, bile salts/pancreatin), LCMS; format: in vitro ADME
Description: Samples were taken at the end of 1st step and at 30 min intervals in the 2nd step to give 6 samples for analysis. The samples will be examined (LCMS) for the level of sarmentosin and sarmentosin esters and compared with the feed material. The two samples were treated as shown below in Table 17 to replicate digestion. [table] Samples taken from the subsequent treatments were stored frozen until required for analysis. The samples were all a similar volume and concentration of original juice. Analysis was performed using LCMS (method described in the earlier work). Samples were prepared in two ways, 1. addition of methanol to precipitate any protein or 2. Direct sampling of neat solution after centrifugation.

MAO-A [4] = target: T1, MAO-A; experiment: MAO-Glo assay kit, MAO-A; format: biochemical; settings: dose response curve, 1 h room temperature
Description: (§1) Synthetic sarmentosin (BOC Sciences; Cat. No. B2703-149954) was diluted in PBS for the MAO inhibition assays. […] Briefly, samples were combined with the kit's luminogenic MAO substrate solution and human enzyme (MAO-A or MAO-B at a final concentration of 20 μg/mL) and incubated at room temperature for 1 h. Following incubation, the luciferin detection reagent were added to each sample and the change in luminescence was measured at room temperature over 40 min in a FLUOstar Omega plate reader (BMG FluoStar Optima, Alphatech Systems, Auckland, New Zealand). […] All samples were analysed in triplicate on each plate.

human enzyme MAO-B = target: T2, human enzyme MAO-B (Homo sapiens, UniProt P27338); experiment: MAO-Glo assay kit, MAO-B; format: biochemical; settings: highest concentration tested
T2 sequence (P27338 1-520): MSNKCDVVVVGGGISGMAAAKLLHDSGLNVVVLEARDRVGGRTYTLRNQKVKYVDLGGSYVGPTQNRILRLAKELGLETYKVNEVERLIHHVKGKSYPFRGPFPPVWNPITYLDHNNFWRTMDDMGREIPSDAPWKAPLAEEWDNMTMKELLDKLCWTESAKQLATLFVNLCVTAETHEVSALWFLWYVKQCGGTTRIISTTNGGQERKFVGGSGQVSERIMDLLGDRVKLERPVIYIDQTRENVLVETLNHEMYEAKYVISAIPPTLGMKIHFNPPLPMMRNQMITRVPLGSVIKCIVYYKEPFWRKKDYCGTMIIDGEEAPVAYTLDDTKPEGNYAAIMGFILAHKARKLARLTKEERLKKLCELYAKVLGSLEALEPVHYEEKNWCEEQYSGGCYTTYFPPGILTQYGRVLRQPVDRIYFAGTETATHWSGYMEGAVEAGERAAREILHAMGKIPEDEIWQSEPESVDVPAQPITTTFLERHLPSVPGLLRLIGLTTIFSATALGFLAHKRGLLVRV
Description: as §1

[5] = human, in vivo
Description: Plasma was separated from whole blood collected in lithium heparin tubes from participants by centrifugation at 4000×g for 10 min at 4° C. Plasma (1 mL) was spiked with 30 μL of 50% formic acid and 100 µL of 10 mmol ascorbic acid then stored at −80° C. prior to shipping on dry ice to the Physiological Chemistry laboratory.
The plasma samples (350 μL) were spiked with malvidin 3-O-galactoside and further acidified with phosphoric acid prior to clean up on a SOLAμ™ Solid Phase Extraction plate. Following washing with water and acetic acid, the retained anthocyanins were eluted with methanol: formic acid (95:5), evaporated to dryness then reconstituted in acetonitrile: formic acid: water (5:3:92) prior to analysis by Liquid Chromatography-Mass Spectrometry (LC-MS). Quantifications of individual and total anthocyanins were performed using the internal standard ratio method using MultiQuant software, and all results are reported as cyanidin 3-O-glucoside equivalents. Quantification of sarmentosin was performed using an external reference standard supplied by Stephen Bloor (Callaghan Institute).

platelet MAO-B = target: T3, platelet MAO-B (Homo sapiens, UniProt P27338); experiment: Acute sarmentosin pilot study, platelet MAO-B activity (Example 10); format: in vivo; settings: for platelet MAO-B activity compared with baseline (0 h): 2 h after consumption; for platelet MAO-B activity compared with baseline: 4 h after consumption
T3 construct: platelets were isolated from whole blood; from tissue; host or cells: platelets isolated from venous blood of human participants
T3 sequence (P27338 1-520): T2 sequence (P27338 1-520)
Description: To determine the efficacy of sarmentosin in temporally inhibiting platelet MAO-B activity, we conducted a randomized, placebo-controlled crossover study. Human participants completed three treatment conditions (placebo, 42 mg sarmentosin, and 84 mg sarmentosin), with each trial day separated by at least 48 h.
Five healthy male adults aged between 25 and 36 years old were enrolled in this study. Participants were randomly allocated one of the three trial treatment beverages. All participants completed all three treatment arms of the study, and data from all participants were included in the study analysis. Enrolled participants were required to take part in three trial days where they consumed their allocated sarmentosin beverages or the placebo. Participants adhered to the same dietary restrictions and consumed the same standardized breakfast as previously described in the intervention study. A venous blood sample was collected at the beginning of each trial day, and then, participants were given their treatment beverage to consume immediately. […] Water was provided ad libitum during the trial day, and participants were seated in the clinical trial facility between venous blood collection time points.
Blackcurrant juice previously confirmed to contain sarmentosin was diluted 1:1 with RO-purified H2O and slowly applied to a column (10 cm diameter×125 cm height) filled with Diaion HP20 resin (Mitsubishi Chemical Industries, Japan). The eluant was collected until it was determined that most of sarmentosin had eluted and was quantified as described previously. Sarmentosin fractions were combined and concentrated using a rotary evaporator, and the resulting sarmentosin-rich fraction was then sterile filtered (Millipore Stericup (0.22 μM), Sigma-Aldrich).
Participants consumed a 250 mL beverage containing 42 and 84 mg total sarmentosin, similar to that present in one and two servings, respectively, of a commercial BC juice (Arepa Performance). Sucrose, BC flavouring, and coloring were added to the beverages to blind for taste and appearance. The placebo beverage was matched for sucrose, contained the same volume of added BC flavouring and coloring produced by Sensient Technologies (Auckland, New Zealand) as the sarmentosin beverages, and diluted to 250 mL to match for sweetness, appearance, and flavor.

MAO-B = target: T4, MAO-B (Sus scrofa, UniProt Q6PLK3); experiment: S9 porcine liver microsome fraction assay, kynuramine to 4HQ by LCMS; settings: qualitative statement
T4 sequence (Q6PLK3 2-520): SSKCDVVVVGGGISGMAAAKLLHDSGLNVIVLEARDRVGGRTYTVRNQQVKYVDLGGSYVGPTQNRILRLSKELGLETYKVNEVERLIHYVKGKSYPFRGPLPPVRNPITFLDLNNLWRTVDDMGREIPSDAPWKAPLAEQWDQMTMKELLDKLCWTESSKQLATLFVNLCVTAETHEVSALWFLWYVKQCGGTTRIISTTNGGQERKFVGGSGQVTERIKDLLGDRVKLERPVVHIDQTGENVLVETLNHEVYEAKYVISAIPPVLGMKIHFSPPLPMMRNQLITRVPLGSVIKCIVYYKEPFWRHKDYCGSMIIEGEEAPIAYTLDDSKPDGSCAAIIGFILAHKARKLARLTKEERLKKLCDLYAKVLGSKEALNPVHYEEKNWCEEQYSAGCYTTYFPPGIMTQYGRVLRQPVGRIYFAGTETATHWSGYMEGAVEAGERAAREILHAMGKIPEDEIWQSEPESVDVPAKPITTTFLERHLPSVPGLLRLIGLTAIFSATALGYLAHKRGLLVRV
Description: We used a porcine S9 liver microsome fraction as the source of the MAO-A and MAO-B enzymes.
The S9 porcine fraction was mixed with a specific MAO substrate (kynuramine) and mixed with the test sample and buffer. After 1 hr at 37° C. the reaction was halted by cooling and addition of 2N NaOH and acetonitrile. The centrifuged sample was then analysed using LCMS and the level of 4-quinolol (4HQ) product measured.
Samples were prepared in a 6-well plate (deep well format with 1.1 ml strip tubes). The assay was performed by diluting the crude S9 fraction with buffer (PBS, PH 7.4, diluted 1 in 5, 150 μl) and adding the test sample dissolved in buffer (75 ul). An aliquot of kynuramine was added (10 ul of 1 mg/ml) and the plate was placed in a 37 C water bath for 1 hr. The plate was cooled in ice water before addition of 20 ul 2N NaOH followed by 250 μl acetonitrile. The individual strip tubes were centrifuged, and samples taken from each for LCMS analysis.
The LCMS analysis was performed using a Cyano HPLC column eluted with 0.1% formic in water and acetonitrile. The LC run was isocratic mode (40% Acetonitrile) and the relative levels of 4 hydroxy quinoline (4HQ) and kynuramine determined from peak areas. […] Kynuramine is converted to 4HQ by the MAO-B enzyme.
Various juice samples, concentrates, powders and whole fruit were tested. […]

Question: Which “duration of MAO-A inhibition before activity returns to baseline” value (MAO-A [1]) does the source give for Cc1cccc(N2CC(CO)OC2=O)c1 (centres unmarked) [toloxatone] here?
Answer: six

Question: Which “time to reach peak concentrations” value [2] does the source give for O=C(NCCN1CCOCC1)c1ccc(Cl)cc1 [Moclobemide] here?
Answer: approximately 1 hours

Question: For NNCCc1ccccc1 [Phenelzine], which “duration of inhibition of MAO-A and B” value (MAO-A and B) is on record?
Answer: up to three

Question: For nigrumin-p-coumarate, which “concentration after in vitro digestion steps” value ([3]; esters: steps 3 through 5, sarmentosin: steps 3 and 4, FIGS. 32 and 33) is on record?
Answer: decrease

Question: With N#C/C(=C\CO[C@@H]1O[C@H](CO)[C@@H](O)[C@H](O)[C@H]1O)CO [sarmentosin, 4-(beta-D-glucopyranosyloxy)-2-(hydroxymethyl-2-butenenitrile)] as the compound, how does the IC50 (MAO-A [4]) read?
Answer: 3.55 µM

Question: What about the inhibition at 250 µM (human enzyme MAO-B) of the same compound?
Answer: 32%

Question: What about the “time of peak concentrations of sarmentosin in plasma” value [5] of the same compound?
Answer: 120 min

Question: And the “concentration after in vitro digestion steps” value [3]?
Answer: increase

Question: What about the “effect of final heating step (90 C. for 10 min) after digestion” value [3] of the same compound?
Answer: some degradation

Question: What about the “platelet MAO-B activity compared with baseline (0 h)” value (platelet MAO-B; 42 mg sarmentosin) of the same compound?
Answer: similarly inhibited platelet MAO-B activity

Question: And the “platelet MAO-B activity compared with baseline” value (platelet MAO-B; 42 mg sarmentosin)?
Answer: MAO-B activity comparable to baseline

Question: What about the “platelet MAO-B activity compared with baseline (0 h)” value (platelet MAO-B; 84 mg sarmentosin) of the same compound?
Answer: similarly inhibited platelet MAO-B activity

Question: And the “platelet MAO-B activity compared with baseline” value (platelet MAO-B; 84 mg sarmentosin)?
Answer: MAO-B activity comparable to baseline

Question: What about the “MAO inhibition activity in S9-LCMS bioassay (level of 4HQ)” value (MAO-B) of the same compound?
Answer: the same activity
